In US7056907B2, “Mandelic acid derivatives and their use as thrombin inhibitors” (AstraZeneca AB, priority 2001, dated 2006):

What was measured:
[1] = Test G: Determination of in vitro Stability, rat liver microsomes; type: in vitro ADME, Sprague-Dawley rats; settings: liver microsomes from rats, 37° C., up to 60 min
Procedure: (§1) Plasma clearance is estimated in male Sprague Dawley rats. The compound is dissolved in water and administered as a subcutaneous bolus injection at a dose of 4 μmol/kg. Blood samples are collected at frequent intervals up to 5 hours after drug administration. Blood samples are centrifuged and plasma is separated from the blood cells and transferred to vials containing citrate (10% final concentration). 50 μL of plasma samples are precipitated with 100 μL of cold acetonitrile. The samples are centrifuged for 10 minutes at 4000 rpm. 75 μL of the supernatant is diluted with 75 μL of 0.2% formic acid. 10 μL volumes of the resulting solutions are analysed by LC-MS/MS and the concentrations of thrombin inhibitor are determined using standard curves. The area under the plasma concentration-time profile is estimated using the log/linear trapezoidal rule and extrapolated to infinite time. Plasma clearance (CL) of the compound is then determined as CL=Dose/AUC The values are reported in mL/min/kg. Test G Determination of in vitro Stability
(§2) Liver microsomes are prepared from Sprague-Dawley rats and human liver samples according to internal SOPs. […] The concentration of compound remaining (FINAL CONC) in the 60 min. sample is determined by means of LCMS using a sample collected at zero time as reference (START CONC). The % of degraded thrombin inhibitor is calculated as: […]

[2] = Test E: Determination of Thrombin Time ex vivo (plasma concentration of thrombin inhibitor after oral or parenteral administration); type: in vivo, rat; settings: conscious rats, plasma analysed by LC-MS/MS
Text: (§3) The clotting time is expressed as absolute values (seconds) as well as the ratio of APTT without inhibitor (APTT0) to APTT with inhibitor (APTTi). The latter ratios (range 1–0) are plotted against the concentration of inhibitor (log transformed) and fitted to sigmoidal dose-response curves according to the equation y=a/[1+(x/IC50)^s] where: a=maximum range, i.e. 1; s=slope of the dose-response curve; and IC50=the concentration of inhibitor that doubles the clotting time. The calculations are processed on a PC using the software program GraFit Version 3, setting equation equal to: Start at 0, define end=1 (Erithacus Software, Robin Leatherbarrow, Imperial College of Science, London, UK). IC50APTT is defined as the concentration of inhibitor in human plasma that doubles the Activated Partial Thromboplastin Time. Test E Determination of Thrombin Time ex vivo
The inhibition of thrombin after oral or parenteral administration of the compounds of the invention, dissolved in ethanol:SolutolK:water (5:5:90), is examined in conscious rats which, one or two days prior to the experiment, are equipped with a catheter for blood sampling from the carotid artery. […]
50 μL of plasma samples are precipitated with 100 μL of cold acetonitrile. […] 10 μL volumes of the resulting solutions are analysed by LC-MS/MS and the concentrations of thrombin inhibitor are determined using standard curves.

[3] = Test G: Determination of in vitro Stability, human liver microsomes; type: in vitro ADME; settings: liver microsomes from humans, 37° C., up to 60 min
Procedure: as §1, §2

[4] = system: pooled normal human citrated plasma; assay: Test D: Determination of Activated Partial Thromboplastin Time (APTT); type: biochemical; settings: read-out: IC50 APTT (concentration of inhibitor in human plasma that doubles the Activated Partial Thromboplastin Time)
Procedure: Determination of Activated Partial Thromboplastin Time (APTT)
APTT is determined in pooled normal human citrated plasma with the reagent PTT Automated 5 manufactured by Stago. The inhibitors are added to the plasma (10 μL inhibitor solution to 90 μL plasma) and incubated with the APTT reagent for 3 minutes followed by the addition of 100 μL of calcium chloride solution (0.025 M) and APTT is determined by use of the coagulation analyser KC10 (Amelung) according to the instructions of the reagent producer.
as §3

Compound	conversion to the corresponding active inhibitor (free amidine) in liver microsomes [1]	oral and/or parenteral bioavailability as the corresponding active inhibitor (free amidine) [2]	conversion to the corresponding active inhibitor (free amidine) in liver microsomes [3]	IC50 [4] [µM]
CO/N=C(\N)c1cc(F)c(CNC(=O)[C@@H]2CCN2C(=O)[C@H](O)c2cc(Cl)cc(OC(F)F)c2)c(F)c1 [Example 2, Ph(3-Cl)(5-OCHF2)—(R)CH(OH)C(O)—(S)Aze-Pab(2,6-diF)(OMe)]	converted to the corresponding active inhibitor (free amidine)	exhibit oral and/or parenteral bioavailability in the rat as the corresponding active inhibitor (free amidine)	converted to the corresponding active inhibitor (free amidine)	
N=C(N)c1cc(F)c(CNC(=O)[C@@H]2CCN2C(=O)[C@H](O)c2cc(Cl)cc(OC(F)F)c2)c(F)c1 [Example 1, Ph(3-Cl)(5-OCHF2)—(R)CH(OH)C(O)—(S)Aze-Pab(2,6-diF)]				< 1
